From PubChem BioAssay (NCI)
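Assay format: 96-well plates, 48-hour exposure. At the TGI there is no net growth.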

Tests used:
Assay in all cases: NCI-60 cell line screen, 48 h
[1] = test system: MCF7 breast
[2] = test system: NCI-H226 lung
[3] = test system: U251 CNS
[4] = test system: SF-268 CNS
[5] = test system: HL-60(TB) leukemia
[6] = test system: MALME-3M melanoma
[7] = test system: OVCAR-4 ovarian
[8] = test system: ACHN renal
[9] = test system: HCC-2998 colon
[10] = test system: NCI-H460 lung
[11] = test system: SW-620 colon
[12] = test system: MDA-MB-435
[13] = test system: HCT-15 colon
[14] = test system: CAKI-1 renal
[15] = test system: UACC-62 melanoma
[16] = test system: HOP-62 NSCLC
[17] = test system: LOX IMVI melanoma
[18] = test system: OVCAR-5 ovarian
[19] = test system: NCI-H23 lung
[20] = test system: K-562 leukemia
[21] = test system: KM12 colon
[22] = test system: NCI/ADR-RES ovarian
[23] = test system: HS 578T breast
[24] = test system: OVCAR-8 ovarian
[25] = test system: BT-549 breast
[26] = test system: UACC-257 melanoma
[27] = test system: RXF 393 renal
[28] = test system: HT29 colon
[29] = test system: UO-31 renal
[30] = test system: PC-3 prostate
[31] = test system: SF-295 CNS
[32] = test system: TK-10 renal
[33] = test system: IGROV1 ovarian
[34] = test system: SK-MEL-28 melanoma
[35] = test system: NCI-H522 lung
[36] = test system: A498 renal
[37] = test system: SNB-19 CNS
[38] = test system: MDA-N
[39] = test system: EKVX NSCLC
[40] = test system: MDA-MB-231 breast
[41] = test system: COLO 205 colon
[42] = test system: OVCAR-3 ovarian
[43] = test system: 786-0 renal
[44] = test system: SK-MEL-2 melanoma
[45] = test system: MOLT-4 leukemia
[46] = test system: SK-MEL-5 melanoma
[47] = test system: DU-145 prostate
[48] = test system: HCT-116 colon
[49] = test system: SN12C renal
[50] = test system: SNB-75 CNS

Measured: TGI

NC1=NC(=O)[C@H](Cc2c[nH]c3ccccc23)N1C(=O)OCc1ccccc1
> 100 µM: all assays above
